Data published in patent US3953442A (priority 1972, dated 1976).
Like-named read-outs stand apart in the source and are kept apart here.

Legend:
visceral pain = assay: Analgesic effect, acetic acid induced visceral pain in the mouse (Koster and Anderson test); type: in vivo; conditions: oral, 30 min before acetic acid injection, 50% effective dose
Experimental: The compounds (I) are analgesic agents.
A visceral pain is induced in the mouse by intraperitonal injection of a dilute solution of acetic acid (Koster and Anderson test).
The animals, which are starved on the day before the experiment and separated into random batches of 5, are treated with the products under test thirty minutes before injection of the irritant. Treatment was always performed orally.
After the acetic acid solution is injected the animals show symptoms of pain (stretching of the abdomen with extension of the back feet) which are counted during two spells of 5 minutes for each lot: from the fifth to the tenth minute and from the fifteenth to the twentieth minute respectively after the acid is injected
The ED50 value is expressed in mg kg bodyweight

central nervous system = assay: animal or person; type: in vivo; conditions: Mus musculus, read-out: Spontaneous pattern of activity (table head: LD50 in mg/kg)
[1] = Acute toxicity (LD50) in the mouse; conditions: in vivo
Experimental: The compounds of the present invention are not very toxic. By way of example, with the mouse, the dose which causes the death of 50 % of the animals or (LD50) is about 400 mg/kg bodyweight by oral and sub-cutaneous administration in the case of 5862.

`CC(Cc1cn(-c2ccccc2)c2ccccc12)N1CCCCC1` (centres unmarked) [compound 5478] gave an ED50 (visceral pain) of 12.5 mg/kg and an ED50 (central nervous system; ip) of 12.5 mg/kg.
`CNC(C)Cc1cn(-c2ccccc2)c2ccccc12` (centres unmarked) [compound 5479] showed an ED50 (central nervous system; ip) of 2.5 mg/kg and an ED50 (central nervous system; po) of 25 mg/kg.
Compound `CC(Cc1cn(-c2ccccc2)c2ccccc12)N1CCCC1` (centres unmarked) [compound 5480] has an ED50 (central nervous system; ip) of 2.5 mg/kg and an ED50 (central nervous system; po) of 12.5 mg/kg.
Compound `CC(Cc1cn(-c2ccccc2)c2ccccc12)N1CCOCC1` (centres unmarked) [compound 5481] has an ED50 (visceral pain) of 12.5 mg/kg and an ED50 (central nervous system; ip) of 2.5 mg/kg.
`CC(Cc1cn(-c2ccccc2)c2ccccc12)N(C)C` (centres unmarked) [compound 5483] showed an ED50 (visceral pain) of 12.5 mg/kg, an ED50 (central nervous system; ip) of 5 mg/kg and an ED50 (central nervous system; po) of 25 mg/kg.
Compound `CNC(C)Cc1cn(-c2ccc(OC)cc2)c2ccccc12` (centres unmarked) [compound 5772] has an ED50 (central nervous system; ip) of 25 mg/kg.
`COc1ccc(-n2cc(CC(C)N(C)C)c3ccccc32)cc1` (centres unmarked) [compound 5773] showed an ED50 (visceral pain) of 12.5 mg/kg, an ED50 (central nervous system; ip) of 1.25 mg/kg and an ED50 (central nervous system; po) of 40 mg/kg.
In the case of `COc1ccc(-n2cc(CC(C)NC(C)C)c3ccccc32)cc1` (centres unmarked) [compound 5774, 1-(4-methoxyphenyl)-3-(2-isopropylaminopropyl)indole], the ED50 (central nervous system; ip) is reported as 12.5 mg/kg.
With `COc1ccc(-n2cc(CC(C)N3CCCC3)c3ccccc32)cc1` (centres unmarked) [compound 5775] the ED50 (visceral pain) was 25 mg/kg and the ED50 (central nervous system; ip) was 1 mg/kg.
Work on `COc1ccc(-n2cc(CC(C)N3CCCCC3)c3ccccc32)cc1` (centres unmarked) [compound 5776] yielded an ED50 (central nervous system; ip) of 5 mg/kg and an ED50 (central nervous system; po) of 35 mg/kg.
`COc1ccc(-n2cc(CC(C)N3CCOCC3)c3ccccc32)cc1` (centres unmarked) [compound 5777] showed an ED50 (central nervous system; ip) of 25 mg/kg.
Work on `CNC(C)Cc1cn(-c2ccc(Cl)cc2)c2ccccc12` (centres unmarked) [compound 5859] yielded an ED50 (central nervous system; ip) of 5 mg/kg.
For `CC(Cc1cn(-c2ccc(Cl)cc2)c2ccccc12)N(C)C` (centres unmarked) [compound 5860], the ED50 (visceral pain) was 25 mg/kg and the ED50 (central nervous system; ip) was 5 mg/kg.
For `CC(Cc1cn(-c2ccc(Cl)cc2)c2ccccc12)N1CCCC1` (centres unmarked) [compound 5861], the ED50 (visceral pain) was 25 mg/kg.
Work on `CC(Cc1cn(-c2ccc(F)cc2)c2ccccc12)N1CCCC1.Cl` (centres unmarked) [compound 5862, 3-(2-pyrrolidinopropyl)-1-(4-fluorophenyl)indole hydrochloride] yielded an ED50 (visceral pain) of 3.12 mg/kg, an ED50 (central nervous system; ip) of 0.4 mg/kg and an LD50 ([1]; oral) of roughly 400 mg/kg. For the same compound, the LD50 ([1]; sc, sub-cutaneous) was roughly 400 mg/kg.
In the case of `CNC(C)Cc1cn(-c2ccc(F)cc2)c2ccccc12` (centres unmarked) [compound 5863], the ED50 (visceral pain) is reported as 6.25 mg/kg and the ED50 (central nervous system; ip) is reported as 2 mg/kg.
Compound `CC(Cc1cn(-c2ccc(F)cc2)c2ccccc12)N(C)C` (centres unmarked) [compound 5864] has an ED50 (visceral pain) of 3.12 mg/kg and an ED50 (central nervous system; ip) of 2 mg/kg.
Compound `CNC(C)Cc1cn(-c2ccc(N)cc2)c2ccccc12` (centres unmarked) [compound 5935] has an ED50 (central nervous system; ip) of 2.5 mg/kg.
In the case of `CC(Cc1cn(-c2ccccc2Cl)c2ccccc12)N1CCCC1` (centres unmarked) [compound 5984], the ED50 (central nervous system; ip) is reported as 0.25 mg/kg and the ED50 (central nervous system; po) is reported as 10 mg/kg.
With `CC(Cc1cn(-c2ccccc2Cl)c2ccccc12)N(C)C` (centres unmarked) [compound 5987] the ED50 (visceral pain) was 12.5 mg/kg, the ED50 (central nervous system; ip) was 6 mg/kg and the ED50 (central nervous system; po) was 6.25 mg/kg.
`CC(Cc1cn(-c2ccccc2F)c2ccccc12)N1CCCC1` (centres unmarked) [compound 5988] gave an ED50 (visceral pain) of 12.5 mg/kg and an ED50 (central nervous system; ip) of 5 mg/kg.
For `CNC(C)Cc1cn(-c2ccccc2F)c2ccccc12` (centres unmarked) [compound 6050], the ED50 (central nervous system; ip) was 12.5 mg/kg.
In the case of `CNC(C)Cc1cn(-c2ccccc2Cl)c2ccccc12` (centres unmarked) [compound 6051], the ED50 (visceral pain) is reported as 50 mg/kg and the ED50 (central nervous system; ip) is reported as 5 mg/kg.
Compound `COc1ccc2c(c1)c(CC(C)N1CCCC1)cn2-c1ccccc1` (centres unmarked) [compound 6066] has an ED50 (central nervous system; ip) of 10 mg/kg.
Compound `CC(Cc1cn(-c2cccnc2)c2ccccc12)N(C)C` (centres unmarked) [compound 6097] has an ED50 (central nervous system; ip) of 10 mg/kg.
For `CC(Cc1cn(-c2ccccn2)c2ccccc12)N(C)C` (centres unmarked) [compound 6099], the ED50 (central nervous system; ip) was 50 mg/kg.
`CC(Cc1cn(-c2ccccn2)c2ccccc12)N1CCCC1` (centres unmarked) [compound 6102] showed an ED50 (central nervous system; ip) of 12.5 mg/kg.
`CNC(C)Cc1cn(-c2ccccn2)c2ccccc12` (centres unmarked) [compound 6104] showed an ED50 (central nervous system; ip) of 25 mg/kg.
`CC(Cc1cn(-c2ccc(F)cc2)c2ccc(Cl)cc12)N1CCCC1` (centres unmarked) [compound 6112, 5-chloro-1-(4-fluorophenyl)-3-(2-pyrrolidinopropyl)indole] gave an ED50 (visceral pain) of 0.75 mg/kg, an ED50 (central nervous system; ip) of 0.4 mg/kg and an LD50 ([1]; oral) greater than 800 mg/kg. The LD50 ([1]; sc, sub-cutaneous) was 400 to 800 mg/kg.
Compound `CC(Cc1cn(-c2ccccc2)c2ccc(F)cc12)N1CCCC1` (centres unmarked) [compound 6116] has an ED50 (central nervous system; ip) of 0.25 mg/kg and an LD50 ([1]; sc, sub-cutaneous) greater than 1000 mg/kg.
`CC(Cc1cn(-c2ccc(F)cc2)c2ccc(F)cc12)N1CCCC1` (centres unmarked) [compound 6250] gave an ED50 (central nervous system; ip) of 0.8 mg/kg and an ED50 (central nervous system; po) of 3.12 mg/kg.
With `CC(Cc1cn(-c2ccc(Cl)cc2)c2ccc(F)cc12)N1CCCC1` (centres unmarked) [compound 6251] the ED50 (visceral pain) was 12.5 mg/kg, the ED50 (central nervous system; ip) was 9 mg/kg and the ED50 (central nervous system; po) was 25 mg/kg.
In the case of `CC(N)Cc1cn(-c2ccc(F)cc2)c2ccccc12` (centres unmarked) [compound 6254], the ED50 (central nervous system; ip) is reported as 80 mg/kg.
Work on `CC(Cc1cn(-c2ccc(Cl)cc2)c2ccc(F)cc12)N(C)C` (centres unmarked) [compound 6264] yielded an ED50 (central nervous system; ip) of 20 mg/kg.
`CC(Cc1cn(-c2ccccc2)c2ccc(F)cc12)N(C)C` (centres unmarked) [compound 6265] gave an ED50 (central nervous system; ip) of 20 mg/kg.
Work on `CC(Cc1cn(-c2ccc(F)cc2)c2ccc(Cl)cc12)N(C)C` (centres unmarked) [compound 6268] yielded an ED50 (central nervous system; ip) of 6.25 mg/kg.
With `CC(Cc1cn(-c2ccc(F)cc2)c2ccc(F)cc12)N(C)C` (centres unmarked) [compound 6269] the ED50 (visceral pain) was 6.25 mg/kg and the ED50 (central nervous system; ip) was 6.25 mg/kg.
With `COc1ccc2c(c1)c(CC(C)N1CCCC1)cn2-c1ccc(F)cc1` (centres unmarked) [compound 6270] the ED50 (central nervous system; ip) was 3.12 mg/kg.
In the case of `COc1ccc2c(c1)c(CC(C)N(C)C)cn2-c1ccccc1` (centres unmarked) [compound 6271], the ED50 (central nervous system; ip) is reported as 12.5 mg/kg.
